Experimental data published in patent US20160045497A1, “COMPLEX PREPARATION INCLUDING VALSARTAN AND ROSUVASTATIN CALCIUM AND MANUFACTURING METHOD THEREFOR” (LG LIFE SCIENCES LTD., priority 2013, published 2016).

Tests used:
[1] = test system: patients with hypertension and hyperlipidemia; test: Clinical test of combined vs single administration: change of LDL-C after 8 weeks; type: in vivo, human; conditions: valsartan 160 mg and/or rosuvastatin 20 mg
Procedure: (§1) The following tests were performed for patients with hypertension and hyperlipidemia to evaluate the efficacy and safety of the combined administration of 160 mg of valsartan and 20 mg of rosuvastatin in comparison with single administration of each of them.
(§2) A screening inspection was conducted for the subjects, who were 20- to 80-year-old patients suffering from hypertension and hyperlipidemia, to ascertain whether they met the selection/exclusion criteria, and administration of the drugs for treating hypertension and hyperlipidemia, which the subjects had taken, was stopped. All the patients who passed the screening inspection were subjected to Therapeutic Lifestyle Change (TLC) for 4 to 6 weeks, and their blood pressure and fasting serum lipid level were measured finally in the measurement 2 (0 week) visit. If the measured values were recognized as suitable to the following criteria, the patient was randomly assigned to one group of the four (4) treatment groups. […]
(§3) According to random assignment, each subject was assigned with the same probability to one of a total of four groups consisting of one combined administration group (group 1), two single administration groups (groups 2 and 3) and one placebo group (group 4) as shown in the following table. […] The visit window was±4 days at each visit, and the timing of visit was determined with the standard of 0 week. […]

[2] = test system: patients with hypertension and hyperlipidemia; test: Clinical test of combined vs single administration: change of sitDBP after 8 weeks; type: in vivo, human; conditions: valsartan 160 mg and/or rosuvastatin 20 mg
Procedure: as §1, §2, §3

Structure (SMILES) | average rate of change of LDL-C from the baseline (Least Square Mean) [1] | average amount of change of sitDBP from the baseline (Least Square Mean) [2]
CC(C)c1nc(N(C)S(C)(=O)=O)nc(-c2ccc(F)cc2)c1/C=C/[C@@H](O)C[C@@H](O)CC(=O)O [Example R20, rosuvastatin] | −47.27% | −3.64 mmHg
CCCCC(=O)N(Cc1ccc(-c2ccccc2-c2nnn[nH]2)cc1)[C@H](C(=O)O)C(C)C [Example V160, valsartan] | −4.52% | −7.26 mmHg
